Among the data in the PolyMetriX glass transition set are glass transition temperature values, retold here.

SMILES strings stand for the structures.

`*/C(Cl)=C(/*)CCCCCC` (repeat unit) returned a glass transition temperature of 150.00 °C.
The value for `*CC#CC#CCOc1cccc(C(=O)OCCN(CCOC(=O)c2cccc(O*)c2)c2ccc(/N=N/c3ccc(C#N)cc3)cc2)c1` (repeat unit) was 50.00 °C; that for `*CCC(=O)Nc1ccc(NC(=O)CCN2C(=O)c3ccc(C(=O)c4ccc5c(c4)C(=O)N(*)C5=O)cc3C2=O)cc1` (repeat unit) was 237.00 °C; that for `*CCC(=O)Nc1ccc(Oc2ccc(NC(=O)CCN3C(=O)c4ccc(C(=O)c5ccc6c(c5)C(=O)N(*)C6=O)cc4C3=O)cc2)cc1` (repeat unit) was 232.00 °C.
The value for `*CCC(C)C(C)CCNC(=O)c1cc(C(=O)N*)cc(C(C)(C)C)c1` (repeat unit) was 173.00 °C; that for `*CCC(C)O[Si](C)(C)O*` (repeat unit) was -88.00 °C; that for `*CCC(C)S*` (repeat unit) was -59.00 °C.
Consider `*CCC(CC)CC(C)CNC(=O)c1ccc(C(=O)N*)cc1` (repeat unit), for which the glass transition temperature is 139.00 °C.
The same measure for `*CCCC(=O)Nc1ccc(Oc2cccc(NC(=O)CCCN3C(=O)c4ccc(C(=O)c5ccc6c(c5)C(=O)N(*)C6=O)cc4C3=O)c2)cc1` (repeat unit): 188.00 °C.
The value for `*CCCC(=O)Oc1ccc(-c2ccc(OC(=O)c3ccc4c(c3)C(=O)N(*)C4=O)cc2)cc1` (repeat unit) was 132.00 °C; that for `*CCCC(C)(C)CCCn1c(=O)c2cc3c(=O)n(*)c(=O)c3cc2c1=O` (repeat unit) was 135.00 °C.
The value for `*CCCC(C)(C)CNC(=O)CCCCCC(=O)N*` (repeat unit) was 70.50 °C.
`*CCCC(C)(C)CNC(=O)CCCCCCCC(=O)N*` (repeat unit) returned a glass transition temperature of 63.00 °C.
The value for `*CCCC(C)O[Si](C)(C)O*` (repeat unit) was -81.00 °C; that for `*CCCC(CC)CCNC(=O)c1ccc(C(=O)N*)cc1` (repeat unit) was 135.00 °C; that for `*CCCCC(=O)Oc1ccc(-c2ccc(OC(=O)c3ccc4c(c3)C(=O)N(*)C4=O)cc2)cc1` (repeat unit) was 123.00 °C.
The same measure for `*CCCCC(=O)Oc1ccc(OC(=O)c2ccc3c(c2)C(=O)N(*)C3=O)cc1` (repeat unit): 89.31 °C.
The value for `*CCCCC(C)CCn1c(=O)c2cc3c(=O)n(*)c(=O)c3cc2c1=O` (repeat unit) was 135.00 °C; that for `*CCCCCC(=O)Oc1ccc(-c2ccc(OC(=O)c3ccc4c(c3)C(=O)N(*)C4=O)cc2)cc1` (repeat unit) was 118.00 °C; that for `*CCCCCC(=O)Oc1ccc(Oc2ccc(OC(=O)CCCCCn3c(=O)c4cc5c(=O)n(*)c(=O)c5cc4c3=O)cc2)cc1` (repeat unit) was 91.00 °C.
As to `*CCCCCC(=O)S*` (repeat unit), the glass transition temperature is 19.00 °C.
The value for `*CCCCCCC(=O)NCc1ccc(CNC(=O)CCCCCCS*)cc1` (repeat unit) was 65.00 °C; that for `*CCCCCCCCCCCCCCNC(=O)CCc1ccc(CCC(=O)N*)cc1` (repeat unit) was 85.00 °C.
The same measure for `*CCCCCCCCCCCCNC(=O)CCc1ccc(CCC(=O)N*)cc1` (repeat unit): 85.00 °C.
`*CCCCCCCCCCSSSS*` (repeat unit) registered a glass transition temperature of -76.00 °C.
Consider `*CCCCN1C(=O)C2C3C=CC(C4C(=O)N(*)C(=O)C34)C2C1=O` (repeat unit), for which the glass transition temperature amounted to 211.00 °C.
The value for `*CCCCOC(=O)CCSCCCCCCSCCC(=O)O*` (repeat unit) was -73.00 °C; that for `*CCCCSSCCCCO*` (repeat unit) was -76.00 °C.
The same measure for `*CCCCSSCCCCOCO*` (repeat unit): -76.00 °C.
The value for `*CCCN(*)C(=O)C(F)(F)C(F)(F)C(F)(F)C(F)(F)C(F)(F)C(F)(F)C(F)(F)F` (repeat unit) was 25.00 °C.
For `*CCCN(*)C(C)=O` (repeat unit), the glass transition temperature worked out at 30.00 °C.
`*CCCN1C(=O)C2C3C=CC(C4C(=O)N(*)C(=O)C34)C2C1=O` (repeat unit) had a glass transition temperature of 210.00 °C.
The same measure for `*CCCP(CCCNC(=O)CCCCC(=O)N*)CC(C)C` (repeat unit): 71.00 °C; for `*CCC[Si](*)(C)C[Si](C)(C)C` (repeat unit): -51.00 °C; for `*CCC[Si](*)(C)c1ccccc1` (repeat unit): -1.50 °C.
The same measure for `*CCC[Si](*)(c1cccc2ccccc12)C1CCCCC1` (repeat unit): 47.50 °C; for `*CCN(*)C` (repeat unit): -31.00 °C; for `*CCN(*)C(=O)C12CC3CC(CC(C3)C1)C2` (repeat unit): 123.00 °C.
The value for `*CCN(*)C(=O)CCCCC` (repeat unit) was 7.00 °C; that for `*CCN(*)C(=O)CCCCCCC` (repeat unit) was 10.00 °C.
With `*CCN(*)C(=O)CCCCCCCCCCCCCCCCC` (repeat unit), the glass transition temperature stood at 10.00 °C.
In turn, `*CCN(*)C(=O)c1c(F)c(F)c(F)c(F)c1F` (repeat unit) registered a glass transition temperature of 136.00 °C.
As for `*CCN(*)C(=O)c1c(F)c(F)cc(F)c1F` (repeat unit), the glass transition temperature came out at 122.00 °C.
The same measure for `*CCN(*)C(=O)c1c(F)cc(F)c(F)c1F` (repeat unit): 122.00 °C; for `*CCN(*)C(=O)c1cc(F)c(F)c(F)c1` (repeat unit): 65.00 °C.
The value for `*CCN(*)C(=O)c1cc(F)cc(F)c1F` (repeat unit) was 110.00 °C; that for `*CCN(*)C(=O)c1ccc(F)c(F)c1F` (repeat unit) was 102.00 °C; that for `*CCN(*)C(=O)c1ccc(F)cc1F` (repeat unit) was 108.00 °C.
The same measure for `*CCN(*)C(=O)c1cccc(F)c1F` (repeat unit): 110.00 °C.
As for `*CCN(*)C(=O)c1ccccc1` (repeat unit), the glass transition temperature came out at 111.00 °C.
The value for `*CCN(CCN1C(=O)c2ccc(C(c3ccc4c(c3)C(=O)N(*)C4=O)(C(F)(F)F)C(F)(F)F)cc2C1=O)c1ccc(/N=N/c2ccc(C#N)cc2)cc1` (repeat unit) was 213.00 °C; that for `*CCN(CCN1C(=O)c2ccc(C(c3ccc4c(c3)C(=O)N(*)C4=O)(C(F)(F)F)C(F)(F)F)cc2C1=O)c1ccc(/N=N/c2ccc(C=O)cc2)cc1` (repeat unit) was 170.00 °C; that for `*CCN(CCOC(=O)CCC#CC#CCCC(=O)O*)c1ccc(/N=N/c2c(C)cc(/N=N/c3ccc(C#N)cc3)cc2C)cc1` (repeat unit) was 63.00 °C.
The value for `*CCN(CCOC(=O)NCC1(C)CC(NC(=O)O*)CC(C)(C)C1)c1ccc(/N=N/c2ccc(B(c3c(C)cc(C)cc3C)c3c(C)cc(C)cc3C)cc2)cc1` (repeat unit) was 146.00 °C; that for `*CCN(CCOC(=O)c1ccc(C(=O)O*)cc1)c1ccc(/N=N/c2ccc(-c3nc4ccc([N+](=O)[O-])cc4n3CC)cc2)cc1` (repeat unit) was 149.00 °C; that for `*CCOCCOC(=O)CCSCCC(=O)O*` (repeat unit) was -33.00 °C.
The same measure for `*CCOCCOCCOCCOC(=O)CCSCCC(=O)O*` (repeat unit): -38.00 °C; for `*CC[Si](C)(C)O[Si]1(*)O[Si](C)(C)O[Si](C)(C)O1` (repeat unit): -64.00 °C.
Turning to `*CCc1cc(C)c(*)cc1C` (repeat unit), the glass transition temperature came to 100.00 °C.
The value for `*CCc1cc(Cl)c(*)c(Cl)c1` (repeat unit) was 110.00 °C.
For `*Nc1ccc(NC(=O)c2cc(C(*)=O)c(C(=O)O)cc2C(=O)O)cc1` (repeat unit), the glass transition temperature came to 283.40 °C.
The value for `*Nc1ccc(NC(=O)c2cc(NC(=O)c3ccncc3)cc(C(*)=O)c2)cc1` (repeat unit) was 327.00 °C.
The molecule `*OC(C)CCOC(=O)C(CCCCCCOc1ccc(/N=C/c2ccc([N+](=O)[O-])cc2)cc1)C(*)=O` (repeat unit) had a glass transition temperature of 3.00 °C.
The value for `*OC(C)CCOC(=O)c1ccc(-c2ccc(C(*)=O)cc2)cc1` (repeat unit) was 92.50 °C; that for `*O[Si](C)(C)CCCNC(=O)C(=O)NCCC[Si](*)(C)C` (repeat unit) was -46.48 °C; that for `*O[Si](C)(C)CC[Si](*)(C)C` (repeat unit) was -88.00 °C.
The value for `*Oc1ccc(C(=O)NCC(C)(C)CCCNC(=O)c2ccc(*)cc2)cc1` (repeat unit) was 155.00 °C.
The value for `*Oc1ccc(C(C)(C)c2ccc(OC(=O)OCCN(CCOC(*)=O)c3ccc(OC)cc3)cc2)cc1` (repeat unit) was 60.00 °C.
As to `*Oc1ccc(CC(NC(=O)CCc2ccc(OC(=O)CCC(*)=O)cc2)C(=O)OCc2ccccc2)cc1` (repeat unit), the glass transition temperature was determined as 78.00 °C.
Molecule `*Oc1ccc(CC(NC(=O)CCc2ccc(OC(=O)CCCCCCCCC(*)=O)cc2)C(=O)OCc2ccccc2)cc1` (repeat unit) returned a glass transition temperature of 42.00 °C.
The same measure for `*Oc1ccc(NC(=O)c2cc(C(=O)Nc3ccc(*)cc3)c(C(=O)O)cc2C(=O)O)cc1` (repeat unit): 207.40 °C; for `*Oc1ccc(NC(=O)c2cc(NC(=O)CCCN3C(=O)c4ccccc4C3=O)cc(C(=O)Nc3ccc(*)cc3)c2)cc1` (repeat unit): 225.00 °C.
The value for `*c1ccc2c(c1)C(=O)N(c1ccc(OCCN(CCOc3ccc(N4C(=O)c5ccc(C(*)(C(F)(F)F)C(F)(F)F)cc5C4=O)cc3)c3ccc(C(C#N)=C(C#N)C#N)cc3)cc1)C2=O` (repeat unit) was 218.00 °C.
